{"source": "patent US20080171070A1", "about": "“Polyelectrolyte Multilayer Film, Preparation And Uses Thereof” (priority 2005, published 2008)", "key": {"human macrophages [1]": {"test_system": "human macrophages", "experiment": "Stimulation assay: TNF-α production (ELISA) by macrophages seeded on PA-containing polyelectrolyte multilayers", "assay_type": "cell-based", "source_text": "Cell Culture. Whole blood samples were purchased at the “Etablissement Français du Sang” (EFS, Strasbourg, France). Peripheral mononuclear blood cells (PBMC) from healthy individuals, seronegative for […] and hepatitis B and C were isolated from buffy coat by Ficoll/Hypaque centrifugation and were washed twice in phosphate-buffered saline without Ca^2+/Mg^2+. Monocytes were isolated from whole-blood and separated by counter-current centrifugal elutriation of the peripheral mononuclear cells.^[40] Purity was measured by flow cytometry staining with fluorochrome antibodies (Becton Dickinson, PharMingen, San Diego, Calif.) to CD3 (T cells), CD19 (B cells), CD14 (monocytes) and CD45 (leukocytes). Monocytes were diluted at 1.5×10^6 cells mL^−1 in AIM lymphocytes SVF free medium with Glutamax, 100 U mL^−1 GM-CSF (PeproTech, Rocky Hill, USA). Culture medium was changed after 3 days of culture, and at day 5 macrophages were washed twice with RPMI at 37° C.\nPolyelectrolyte multilayered film preparation. Polyelectrolyte multilayers were always prepared on glass coverslips (CML, France) pretreated for 15 min at 100° C. with 10^−2 M SDS and 0.12 N HCl, and then extensively rinsed with deionised water. Glass coverslips were deposited in 24-well plates (Nunc, Denmark). All the solutions (polyelectrolyte, PA and rinsing) used for the film constructions contained 0.15 M NaCl with a pH adjusted to 7.4. At this pH both polylysine and polyglutamic acid are almost fully charged, be they l or d enantiomers so that they should not form stereocomplexes in solution. The films were constructed with polyelectrolyte (resp. PA) solutions at 1 mg·mL^−1 (resp. 200 μg·mL^−1) of polyelectrolytes (resp. PA). The film construction was performed as follows: First a precursor film constituted by (PlL/PlGA)5-PlL was built. In each deposition step, the surface is brought in contact with the polyelectrolyte solution for 20 mins followed by another contact with the rinsing solution for 5 mins. This rinsing step is repeated 3 times before adsorption of the polyelectrolyte of opposite charge. After the buildup of the precursor film, PA was adsorbed on the positively charged PlL terminating the precursor film during an overnight contact with PA solution. This film was then rinsed and the additional (PL/PGA)n-PL film was built by using PL and PGA solutions containing (x/100) mg·mL^−1 of PdL (resp. PdGA) and (1-x/100) mg·mL^−1 of PlL (resp. PlGA). All the films were then sterilized for 10 mins by ultraviolet light (254 nm). Before use, the architectures were put in contact with 1 mL of RPMI without serum during 24 h. It is possible that when the films are brought in contact with the culture medium, their structure and thickness change, the structure of the multilayers being dependent on many different physico-chemical parameters.^[41-43] However, such changes cannot explain the different biological effects that are observed in this study. […] One can also notice that the films were built at room temperature whereas the experiments with cells were realized at 37° C.\nStimulation assays. Stimulation assays involving polyelectrolyte films were conducted by seeding 5×10^5 cells (macrophages) onto the PA-containing polyelectrolyte multilayers prepared on glass coverslips and placed into the wells of 24-well plates. TNF-α production by cells was measured by ELISA. TNF-α levels were detected by an enzyme immunoassay (Endogen Products, Woburn, Mass.). All experiments were repeated twice and were performed at 37° C.\nFor multilayer films containing embedded PA, the proteins were always adsorbed on a (PlL/PlGA)5-PlL precursor film in order to keep the adsorption process (in particular the amount of adsorbed proteins) unaffected by the d/l composition of the film. The multilayer with a given d/l composition was then further deposited on top of the (PlL/PlGA)5-PlL-PA architecture and is constituted by n additional pairs of layers. […]"}, "macrophages": {"test_system": "macrophages", "experiment": "Confocal laser scanning microscopy of films in contact with cells (film degradation, contact with embedded protein A)", "assay_type": "cell-based, human", "details": "protein A embedded under 20 pairs of (PlGA/PlL) layers", "description": "Confocal laser scanning microscopy. For the confocal laser scanning microscopy (CLSM) based investigations, the films were imaged in liquid conditions. CLSM observations were carried out with a Zeiss LSM 510 microscope using a ×40/1.4 oil immersion objective and with 0.4 μm z-section intervals. FITC fluorescence was detected after excitation at 488 nm, cutoff dichroic mirror 488 nm, and emission band pass filter 505-530 nm (green). Virtual vertical sections can be visualized, allowing the thickness of the film to be determined.\nIn previous experiments, the inventors could visualize the pseudopods developing through the multilayer down to the protein A layer.^[19] […] The progressive degradation of the (PlGA/PlL)n film as a function of contact time with the cells is visualized in FIGS. 2a-2c.\nThe inventors have seen that the film thickness depends upon the d/l ratio of the build-up polyelectrolyte solutions and in particular that it decreases when x increases from 0 up to 50%. On the other hand, for a given number of deposited pairs of layers, the biological activity decreases when x increases. The variations of the biological effects can thus not be attributed to changes of the film thickness with x. The biological effects can rather be explained by a continuous degradation and pseudopod development through the multilayered films^[19] as already found on (PlL/PlGA)n films. […]"}, "[2]": {"experiment": "FTIR spectroscopy in transmission mode, amide-I spectra of protein A with polypeptides", "assay_type": "physicochemical", "details": "protein A with PlL and/or PdL, 1 mg mL^−1 each, D2O, 0.15M NaCl", "description": "FTIR Spectroscopy in transmission mode. Transmission spectra were measured on an EQUINOX 55 spectrophotometer (Bruker, Wissembourg, France) using a DTGS detector. Solutions were flown into a sample cell holder (SPECAC P/N 20510). Transmission spectra were measured by using CaF2 windows. Single channel spectra from 128 interferograms were calculated between 4000 and 400 cm^−1 with 2 cm^−1 resolution, using Blackman-Harris three-term apodization and Mertz phase correction with the standard Bruker OPUS/IR software (Version 3.0.4). Each sample (aqueous solution of polypeptide or protein A or both) was prepared at a concentration of 1 mg mL^−1 of each component, in a D2O, 0.15M NaCl (purchased from Prolabo) solution."}, "cells": {"test_system": "cells", "details": "replacement of PlL by PdL in the film; cited from earlier work"}, "human macrophages [3]": {"test_system": "human macrophages", "details": "cited from earlier work"}}, "data": [{"substance": "PA: Staphylococcus aureus protein A, MW=42,000 Da, from Sigma; embedded in the multilayer films as model active ingredient", "values": [{"measurement": "TNF-α production (biological activity)", "setting": "human macrophages [1]; d content between 10 and 20%, all embedding depths up to n=20, after 4 hours of contact", "result": "full activity"}, {"measurement": "TNF-α production (biological activity)", "setting": "human macrophages [1]; d content between 10 and 20%, embedding depth exceeds 15 pairs of layers, after 4 hours of contact", "result": "reaches its full activity"}, {"measurement": "TNF-α production (biological response)", "setting": "human macrophages [1]; d content between 10 and 20%, embedding depth exceeds 15 pairs of layers, initial 3 hours of contact", "result": "no biological response"}, {"measurement": "TNF-α production (biological activity), time course", "setting": "human macrophages [1]; d content between 10 and 20%, embedding depths up to 5 pairs of layers", "result": "increases continuously in time, the plateau value being reached after 4 hours of contact"}, {"measurement": "TNF-α production (cellular response)", "setting": "human macrophages [1]; n=0: PA adsorbed on top of the film, direct contact with cells, lasts at least up to 6 hours", "result": "rapid cellular response is observed already after one hour of contact"}, {"measurement": "TNF-α production (biological activity)", "setting": "human macrophages [1]; x between 30 and 40%, PA embedded under 1 layer pair", "result": "gradually increases after 2 hours of contact"}, {"measurement": "TNF-α production (biological activity)", "setting": "human macrophages [1]; x between 30 and 40%, embedded under 5 pairs of layers, after 6 hours of contact", "result": "fully active"}, {"measurement": "TNF-α production (biological activity)", "setting": "human macrophages [1]; x between 30 and 40%, embedded under 5 pairs of layers, first 4 hours", "result": "totally suppressed"}, {"measurement": "TNF-α production (biological activity)", "setting": "human macrophages [1]; x between 30 and 40%, embedded under 15 pairs of layers or more, first 6 hours of contact", "result": "no longer acts on cells"}, {"measurement": "TNF-α production (biological activity)", "setting": "human macrophages [1]; x equals 50% or more of d enantiomer, PA embedded under a (PL/PGA/PL) trilayer", "result": "totally suppressed"}, {"measurement": "Contact of macrophages with embedded protein A (CLSM)", "setting": "macrophages", "result": "come into contact with protein A"}, {"measurement": "Effect of polypeptide interaction on secondary structure of protein A (amide-I spectra)", "setting": "[2]", "result": "do not affect the secondary structure of protein A"}, {"measurement": "Cellular communication with embedded PA", "setting": "cells", "result": "prevents cellular communication with embedded PA"}, {"measurement": "Cytokine expression on PA stimulation", "setting": "human macrophages [3]", "result": "rapid expression of both the pro-inflammatory cytokine TNF-α and the anti-inflammatory cytokine IL-10"}]}]}
